Laboratory results as given in ChEMBL document CHEMBL1201862, “PubChem BioAssay data set” (2004).
Active and inactive are the calls of the source.

What was measured:
[1] = biological target: NAD-dependent protein deacylase sirtuin-5, mitochondrial (Homo sapiens, UniProt Q9NXA8); assay: SIRT5 desuccinylase inhibitors, dose response, biochemical, fluorescence imaging, cherry-pick, set 5 (AID 720591);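 note: desuccinylation of succinyl peptide AMC substrate read as fluorescence after trypsin release; potency of inhibitors that lower fluorescence and may act on trypsin instead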
NAD-dependent protein deacylase sirtuin-5, mitochondrial, sequence (Q9NXA8 whole entry): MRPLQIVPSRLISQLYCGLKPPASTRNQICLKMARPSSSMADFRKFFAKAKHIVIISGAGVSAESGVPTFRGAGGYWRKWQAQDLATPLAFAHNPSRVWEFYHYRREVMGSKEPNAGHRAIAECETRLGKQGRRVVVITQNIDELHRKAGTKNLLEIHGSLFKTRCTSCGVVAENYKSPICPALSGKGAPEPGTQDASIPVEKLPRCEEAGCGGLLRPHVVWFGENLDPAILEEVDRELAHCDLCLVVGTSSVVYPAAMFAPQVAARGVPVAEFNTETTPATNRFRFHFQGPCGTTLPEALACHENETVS

[2] = biological target: Kallikrein-7 (Homo sapiens, UniProt P49862); assay: Fluorescence Intensity-based biochemical primary high throughput dose response assay to identify activators of kallikrein-7 (K7) zymogen.
Kallikrein-7, sequence (P49862 whole entry): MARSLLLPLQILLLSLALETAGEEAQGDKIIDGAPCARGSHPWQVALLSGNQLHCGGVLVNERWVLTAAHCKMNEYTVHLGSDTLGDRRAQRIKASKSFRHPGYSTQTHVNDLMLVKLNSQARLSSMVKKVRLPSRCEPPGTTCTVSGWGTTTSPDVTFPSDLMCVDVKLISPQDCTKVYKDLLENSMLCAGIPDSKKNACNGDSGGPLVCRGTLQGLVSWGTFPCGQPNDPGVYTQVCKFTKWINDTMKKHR

[3] = HepG2 cell cytotoxicity, dose response, cytotoxicity control for Shn3 inhibitor project, CellTiter-Glo, cherry-picked (AID 624134); format: functional, cell-based
[4] = Shn3 3'UTR reporter inhibitors, dose response, cell-based, Clone20 osteoblasts, firefly luciferase, cherry-picked (AID 624132); format: functional;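 note: firefly luciferase luminescence from reporter carrying the Shn3 3'UTR in osteoblasts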
[5] = NIH-3T3 fibroblast cytotoxicity, dose response, cytotoxicity control, cell-based, fluorescence, Alamar Blue, secondary assay (AID 2327); format: functional;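 note: NIH-3T3 mouse fibroblasts cultured with fluconazole at 8 µg/mL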
[6] = biological target: ATP-dependent molecular chaperone HSP82 (Candida albicans (strain WO-1) (Yeast), UniProt C4YTQ8); assay: loss of DOC-induced GRE-beta-galactosidase reporter signal, dose response, Hsp90 inhibitor project, S. cerevisiae, luminescence (AID 2400); format: functional, cell-based;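 note: beta-galactosidase luminescence from glucocorticoid response element reporter as proxy for Hsp90 function; inhibitor potency where signal loss means Hsp90 inhibition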
ATP-dependent molecular chaperone HSP82, sequence (C4YTQ8 whole entry): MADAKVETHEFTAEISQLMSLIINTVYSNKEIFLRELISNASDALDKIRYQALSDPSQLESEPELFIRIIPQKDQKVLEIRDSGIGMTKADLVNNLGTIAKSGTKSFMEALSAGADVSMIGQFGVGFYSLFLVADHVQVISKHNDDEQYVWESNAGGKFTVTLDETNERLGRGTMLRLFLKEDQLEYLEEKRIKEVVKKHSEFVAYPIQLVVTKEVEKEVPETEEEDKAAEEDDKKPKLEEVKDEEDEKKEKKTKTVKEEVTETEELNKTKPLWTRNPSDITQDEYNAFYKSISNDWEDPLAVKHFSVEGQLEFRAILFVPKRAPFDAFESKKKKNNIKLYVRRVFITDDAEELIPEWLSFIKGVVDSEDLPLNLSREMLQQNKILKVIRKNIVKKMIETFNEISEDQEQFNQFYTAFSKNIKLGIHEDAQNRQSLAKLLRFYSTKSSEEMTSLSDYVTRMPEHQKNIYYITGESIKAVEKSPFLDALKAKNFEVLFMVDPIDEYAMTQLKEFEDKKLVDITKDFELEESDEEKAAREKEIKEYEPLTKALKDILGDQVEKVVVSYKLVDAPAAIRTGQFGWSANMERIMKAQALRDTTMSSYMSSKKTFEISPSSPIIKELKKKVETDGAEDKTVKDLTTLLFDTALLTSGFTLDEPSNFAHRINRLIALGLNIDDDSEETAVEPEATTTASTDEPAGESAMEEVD

[7] = biological target: T1, Serine/threonine-protein phosphatase (Candida dubliniensis (strain CD36 / CBS 7987 / NCPF 3949 / NRRLY-17841) (Yeast), UniProt B9W6M3); assay: Fluorescence Cell-Based Secondary Assay to Identify Inhibitors of Calcineurin. [Related pubchem assays (depositor defined):AID1979, AID2007]; format: functional
T1 sequence (B9W6M3 whole entry): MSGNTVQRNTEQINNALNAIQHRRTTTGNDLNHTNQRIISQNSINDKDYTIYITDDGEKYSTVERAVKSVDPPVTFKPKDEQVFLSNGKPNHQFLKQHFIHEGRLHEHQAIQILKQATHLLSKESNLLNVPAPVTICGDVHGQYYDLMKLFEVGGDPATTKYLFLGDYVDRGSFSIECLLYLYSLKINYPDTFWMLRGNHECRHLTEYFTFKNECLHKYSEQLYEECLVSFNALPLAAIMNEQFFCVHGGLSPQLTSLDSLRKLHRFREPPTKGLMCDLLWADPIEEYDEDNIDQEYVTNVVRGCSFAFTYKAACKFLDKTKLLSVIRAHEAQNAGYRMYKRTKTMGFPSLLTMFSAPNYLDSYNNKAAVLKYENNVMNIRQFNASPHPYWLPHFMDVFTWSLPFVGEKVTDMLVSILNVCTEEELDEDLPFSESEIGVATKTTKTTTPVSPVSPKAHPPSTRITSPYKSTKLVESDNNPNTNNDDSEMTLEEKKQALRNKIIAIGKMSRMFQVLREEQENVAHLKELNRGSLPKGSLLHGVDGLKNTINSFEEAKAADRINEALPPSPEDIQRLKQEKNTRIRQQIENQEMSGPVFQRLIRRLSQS

[8] = inhibitors of control Renilla luciferase reporter, dose response, counter-screen for Shn3 3'UTR targeting project, Clone20-Shn3RL cells, dual-Glo, cherry-pick, set 2 (AID 720724); format: functional, cell-based; details: Dual-Go Shn3RL
[9] = control 3'UTR Renilla luciferase suppression, dose response, counter-screen for Shn3 inhibitor project, cell-based, Clone20-Shn3RL, cherry-picked (AID 624133); format: functional
[10] = biological target: T1, Serine/threonine-protein phosphatase; assay: calcineurin pathway inhibitors in yeast reporter, dose response, S. cerevisiae, CDRE-lacZ, luminescence, secondary (AID 2388); format: functional, cell-based;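 note: yeast reporter cells carrying a calcineurin-responsive lacZ construct stimulated with calcium chloride; luminescent beta-galactosidase reporter signal in whole cells rather than isolated phosphatase activity; potency for inhibition where a drop in reporter signal means calcineurin blockade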
[11] = C. albicans growth with fluconazole, confirmation, fluorescence, retest (AID 2467); format: functional, cell-based
[12] = tested on: INS1; assay: beta cell apoptosis inhibitors, cytokine rescue, dose response, luminescence, retest (AID 449756); format: functional, cell-based; details: Rattus norvegicus;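 note: cell death triggered by IL-1 beta plus TNF-alpha plus IFN-gamma mixture; protective hits raise ATP signal compared with cytokine alone wells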
[13] = reduction of Shn3 3'UTR firefly luciferase signal, dose response, Schnurri-3 inhibitor project, cell-based, Clone20 osteoblasts, cherry-pick, set 2 (AID 720490); format: functional;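 note: actives lower the luminescence signal as inhibitors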
[14] = biological target: T2, Protein skinhead-1 (Caenorhabditis elegans, UniProt P34707); format: functional
T2 sequence (P34707 whole entry): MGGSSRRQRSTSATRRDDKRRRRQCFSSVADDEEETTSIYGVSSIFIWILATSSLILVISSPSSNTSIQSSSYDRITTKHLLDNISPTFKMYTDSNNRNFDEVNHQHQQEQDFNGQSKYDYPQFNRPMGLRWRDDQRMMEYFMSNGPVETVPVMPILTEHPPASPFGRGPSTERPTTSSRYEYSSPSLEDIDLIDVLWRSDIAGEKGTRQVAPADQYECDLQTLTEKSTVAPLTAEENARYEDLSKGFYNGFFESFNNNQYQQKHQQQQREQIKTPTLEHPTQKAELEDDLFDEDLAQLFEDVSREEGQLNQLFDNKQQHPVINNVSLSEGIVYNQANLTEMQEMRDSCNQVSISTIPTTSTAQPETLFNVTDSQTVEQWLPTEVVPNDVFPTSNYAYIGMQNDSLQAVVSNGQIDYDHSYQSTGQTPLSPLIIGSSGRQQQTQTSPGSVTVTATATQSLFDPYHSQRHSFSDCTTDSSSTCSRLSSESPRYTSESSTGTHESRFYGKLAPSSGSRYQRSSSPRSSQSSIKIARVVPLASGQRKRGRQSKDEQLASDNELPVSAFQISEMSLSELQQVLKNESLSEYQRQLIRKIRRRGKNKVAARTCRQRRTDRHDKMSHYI

[15] = Counterscreen for inhibitors of Trypanosoma brucei methionyl tRNA synthetase (MetRS): Luminescence-based cell-based high throughput dose response assay to identify compounds that are cytotoxic to Jurkat human T lymphocyte cells.; format: functional
[16] = biological target: Intestinal-type alkaline phosphatase (Mus musculus, UniProt P24822); assay: PubChem AID 488785; format: functional
Intestinal-type alkaline phosphatase (Mus musculus, UniProt P24822), sequence (P24822 whole entry): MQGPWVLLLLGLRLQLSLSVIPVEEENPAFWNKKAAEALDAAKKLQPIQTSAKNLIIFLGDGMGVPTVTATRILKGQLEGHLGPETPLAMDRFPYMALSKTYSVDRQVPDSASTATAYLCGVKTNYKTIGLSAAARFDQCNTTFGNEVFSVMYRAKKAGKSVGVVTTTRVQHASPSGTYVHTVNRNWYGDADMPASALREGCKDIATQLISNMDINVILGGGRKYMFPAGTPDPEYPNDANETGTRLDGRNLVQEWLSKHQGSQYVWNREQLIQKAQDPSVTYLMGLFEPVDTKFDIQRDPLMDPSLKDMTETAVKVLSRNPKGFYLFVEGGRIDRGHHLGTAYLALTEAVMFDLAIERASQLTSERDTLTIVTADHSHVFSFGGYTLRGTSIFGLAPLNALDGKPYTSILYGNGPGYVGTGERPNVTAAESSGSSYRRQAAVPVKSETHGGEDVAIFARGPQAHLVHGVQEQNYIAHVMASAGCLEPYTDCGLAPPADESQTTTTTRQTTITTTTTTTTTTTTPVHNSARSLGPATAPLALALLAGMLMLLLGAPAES

[17] = biological target: T3, Alkaline phosphatase, tissue-nonspecific isozyme (Homo sapiens, UniProt P05186); assay: TNAP enzyme inhibition by screening hits, dose response, selectivity assay for mouse IAP inhibitor project, biochemical, human TNAP, uHTS hits (AID 488906); format: functional
T3 sequence (P05186 whole entry): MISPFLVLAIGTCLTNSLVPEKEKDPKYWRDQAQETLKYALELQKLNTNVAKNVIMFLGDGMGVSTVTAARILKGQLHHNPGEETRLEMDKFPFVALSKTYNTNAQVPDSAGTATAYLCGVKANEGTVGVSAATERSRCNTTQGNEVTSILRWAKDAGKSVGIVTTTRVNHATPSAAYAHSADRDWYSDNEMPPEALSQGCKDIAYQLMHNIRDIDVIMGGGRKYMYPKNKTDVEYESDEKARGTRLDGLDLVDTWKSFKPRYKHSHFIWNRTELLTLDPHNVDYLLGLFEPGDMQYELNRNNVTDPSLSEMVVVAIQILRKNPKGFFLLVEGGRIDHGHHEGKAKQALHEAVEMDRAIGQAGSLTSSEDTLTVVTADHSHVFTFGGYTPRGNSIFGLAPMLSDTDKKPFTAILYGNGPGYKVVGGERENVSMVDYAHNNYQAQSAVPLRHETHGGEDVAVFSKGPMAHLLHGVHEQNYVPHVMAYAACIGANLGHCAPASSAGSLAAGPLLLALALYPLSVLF

[18] = biological target: T4, Methionyl-tRNA synthetase, putative (Trypanosoma brucei brucei, UniProt Q38C91); format: functional, Trypanosoma brucei brucei strain 927/4 GUTat10.1
T4 sequence (Q38C91 whole entry): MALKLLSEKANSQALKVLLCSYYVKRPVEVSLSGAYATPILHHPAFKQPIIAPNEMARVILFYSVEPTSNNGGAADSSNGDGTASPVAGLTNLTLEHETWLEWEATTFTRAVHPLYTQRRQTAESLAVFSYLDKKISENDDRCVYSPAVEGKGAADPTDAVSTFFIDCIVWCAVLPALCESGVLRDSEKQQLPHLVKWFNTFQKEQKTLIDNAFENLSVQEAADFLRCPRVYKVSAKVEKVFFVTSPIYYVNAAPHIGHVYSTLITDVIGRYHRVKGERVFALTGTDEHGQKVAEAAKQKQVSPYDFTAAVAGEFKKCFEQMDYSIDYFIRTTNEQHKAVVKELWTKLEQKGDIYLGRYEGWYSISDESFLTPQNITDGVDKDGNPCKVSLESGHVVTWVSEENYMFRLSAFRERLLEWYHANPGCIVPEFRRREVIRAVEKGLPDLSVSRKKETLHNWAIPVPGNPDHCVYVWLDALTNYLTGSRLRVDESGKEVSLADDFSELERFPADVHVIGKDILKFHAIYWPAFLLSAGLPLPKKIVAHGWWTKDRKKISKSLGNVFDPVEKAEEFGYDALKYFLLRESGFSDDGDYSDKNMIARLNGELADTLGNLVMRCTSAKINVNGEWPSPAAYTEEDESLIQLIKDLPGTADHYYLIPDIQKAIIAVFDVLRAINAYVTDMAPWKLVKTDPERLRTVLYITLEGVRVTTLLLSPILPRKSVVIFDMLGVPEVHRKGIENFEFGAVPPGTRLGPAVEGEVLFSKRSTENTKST

[19] = biological target: Intestinal-type alkaline phosphatase (Homo sapiens, UniProt P09923); assay: inhibition of human intestinal alkaline phosphatase – biochemical, dose response (AID 488876); format: functional
Intestinal-type alkaline phosphatase (Homo sapiens, UniProt P09923), sequence (P09923 whole entry, the tested form may be a part): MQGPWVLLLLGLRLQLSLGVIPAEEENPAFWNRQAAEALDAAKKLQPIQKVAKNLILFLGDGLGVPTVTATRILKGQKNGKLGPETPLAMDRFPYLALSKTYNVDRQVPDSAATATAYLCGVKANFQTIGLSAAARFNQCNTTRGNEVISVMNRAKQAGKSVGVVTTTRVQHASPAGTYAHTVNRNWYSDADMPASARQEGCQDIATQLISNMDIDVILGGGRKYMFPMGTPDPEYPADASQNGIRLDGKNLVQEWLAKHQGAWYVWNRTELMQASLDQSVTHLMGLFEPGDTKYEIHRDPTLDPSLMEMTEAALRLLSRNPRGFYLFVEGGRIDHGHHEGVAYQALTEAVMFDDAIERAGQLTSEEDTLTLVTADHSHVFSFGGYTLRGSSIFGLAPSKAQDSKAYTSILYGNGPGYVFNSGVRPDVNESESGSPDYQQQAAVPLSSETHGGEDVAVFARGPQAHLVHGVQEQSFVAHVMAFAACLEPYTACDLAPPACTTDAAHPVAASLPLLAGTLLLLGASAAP

[20] = biological target: Disintegrin and metalloproteinase domain-containing protein 17 (Homo sapiens, UniProt P78536); assay: ADAM17 protease inhibitors, dose response, counter-screen for ADAM10 exosite inhibitor project, biochemical, quenched FRET substrate (AID 743253)
Disintegrin and metalloproteinase domain-containing protein 17, sequence (P78536 whole entry, the tested form may be a part): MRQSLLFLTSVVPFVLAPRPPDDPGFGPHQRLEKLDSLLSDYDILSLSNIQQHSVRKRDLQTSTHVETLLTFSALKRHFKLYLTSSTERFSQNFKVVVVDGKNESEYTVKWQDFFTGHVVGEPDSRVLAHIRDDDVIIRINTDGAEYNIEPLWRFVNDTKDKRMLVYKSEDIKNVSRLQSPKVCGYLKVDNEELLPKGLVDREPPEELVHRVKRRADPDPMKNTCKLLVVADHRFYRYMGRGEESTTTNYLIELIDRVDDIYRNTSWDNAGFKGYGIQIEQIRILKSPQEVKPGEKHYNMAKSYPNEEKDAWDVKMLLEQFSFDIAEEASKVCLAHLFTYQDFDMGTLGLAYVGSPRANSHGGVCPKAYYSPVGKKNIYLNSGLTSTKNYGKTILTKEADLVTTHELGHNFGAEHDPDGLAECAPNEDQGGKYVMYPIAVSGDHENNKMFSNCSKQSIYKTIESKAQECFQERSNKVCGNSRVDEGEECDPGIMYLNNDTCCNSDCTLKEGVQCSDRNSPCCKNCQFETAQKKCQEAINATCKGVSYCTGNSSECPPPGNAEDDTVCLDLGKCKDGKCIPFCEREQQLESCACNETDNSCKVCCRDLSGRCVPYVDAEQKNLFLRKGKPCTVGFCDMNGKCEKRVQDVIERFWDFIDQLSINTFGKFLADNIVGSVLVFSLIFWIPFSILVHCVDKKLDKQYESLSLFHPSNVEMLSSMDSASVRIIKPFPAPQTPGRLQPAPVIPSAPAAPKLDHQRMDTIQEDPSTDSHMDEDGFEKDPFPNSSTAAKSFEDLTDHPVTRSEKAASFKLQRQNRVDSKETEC

[21] = ADAM10 inhibitors, peptide cleavage, dose response, biochemical, QFRET (AID 743254);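 note: ADAM10 enzyme with the DM2 quenched FRET peptide as substrate; EDANS fluorescence gain as the protease cuts the substrate; inhibitor potency against ADAM10 proteolytic activity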
[22] = biological target: T4, Methionyl-tRNA synthetase, putative; format: functional, Trypanosoma brucei brucei strain 927/4 GUTat10.1; remark: listed apart in the source
[23] = A375 melanoma cell cytotoxicity, dose response, counter-screen for MITF inhibitor project, CellTiter-Glo luminescence, dry powder, set 2 (AID 624489); format: functional, cell-based; details: A-375;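 note: actives are compounds lowering A375 viability meaning general cytotoxicity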
[24] = TRPM1 promoter luciferase reporter signal decrease, dose response, MITF inhibitor project, cell-based, SK-MEL-5, dry powder, set 9 (AID 651588); format: functional
[25] = MITF Orthogonal Assay: MALME3 CTG Assay Measured in Cell-Based System Using Plate Reader - 2084-04_Inhibitor_Dose_DryPowder_Activity_Set6.; format: functional; details: MALME-3
[26] = MITF Orthogonal Assay: SK-MEL-5 CTG Assay Measured in Cell-Based System Using Plate Reader - 2084-02_Inhibitor_Dose_DryPowder_Activity_Set5.; format: functional
[27] = A375 melanoma cell viability loss, dose response, counter-screen for MITF modulator project, CellTiter-Glo luminescence, dry powder, set 9 (AID 651591); format: functional, cell-based; details: A-375
[28] = A375 melanoma cell cytotoxicity, dose response, counter-screen for MITF inhibitor project, CellTiter-Glo luminescence, dry powder, set 6 (AID 624488); format: functional, cell-based; details: A-375
[29] = MITF Measured in Cell-Based System Using Plate Reader - 2084-01_Inhibitor_Dose_DryPowder_Activity_Set7.; format: functional
[30] = A375 melanoma cell viability loss, dose response, counter-screen for MITF inhibitor project, CellTiter-Glo luminescence, dry powder, set 4 (AID 624364); format: functional, cell-based; details: A-375;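 note: A375 melanoma cells are MITF independent so this is a counter screen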
[31] = MITF Measured in Cell-Based System Using Plate Reader - 2084-01_Inhibitor_Dose_DryPowder_Activity_Set6.; format: functional
[32] = SK-MEL-5 parental cell viability reduction, dose response, orthogonal assay for MITF inhibitor project, CellTiter-Glo luminescence, dry powder, set 8 (AID 651586); format: functional, cell-based
[33] = A375 melanoma cell cytotoxicity, dose response, counter-screen for MITF inhibitor project, CellTiter-Glo luminescence, dry powder, set 7 (AID 624490); format: functional, cell-based; details: A-375
[34] = SK-MEL-5 parental line viability, dose response, MITF inhibitor project, cell-based, CellTiter-Glo, dry powder, set 6 (AID 624429); format: functional
[35] = MALME3 melanoma cell viability reduction, dose response, orthogonal assay for MITF inhibitor project, CellTiter-Glo luminescence, dry powder, set 5 (AID 651584); format: functional, cell-based; details: MALME-3
[36] = HeLa cell cytotoxicity, dose response, cytotoxicity control, 24 h, plate reader, dry powder (AID 686928); format: functional, cell-based
[37] = cells

Structure (SMILES): CCOC(=O)c1cnc(-n2nc(C)cc2C)nc1Oc1ccccc1F
- AC50 [1]: > 30 µM (inactive)

Structure (SMILES): CCN1CCN(C(=O)COc2ccc3c(c2)C(=O)CC2(CCN(C(C)=O)CC2)O3)CC1
- EC50 [2]: > 2.58 µM (active)

Structure (SMILES): Cc1nc2ccccc2cc1OCc1ccc(F)cc1
- AC50 [3]: 41.7 µM (active)
- AC50 [4]: 1.7 µM (active)
- EC50 [5]: > 160 µM (inactive)
- EC50 [6]: 21.1 µM (active)
- EC50 [7]: > 285 µM (inactive)
- AC50 [8]: 4.87 µM (active)
- AC50 [9]: 22.1 µM (active)
- EC50 [10]: > 180 µM (inactive)
- EC50 [11]: 1.58 µM (active)
- AC50 [12]: 4.84 µM (active)
- AC50 [13]: 2.05 µM (active)
- IC50 [14]: 12.2 µM (active)

Structure (SMILES): CCc1cc(Cn2nc(-c3ccccc3)cc2C(=O)NCc2cccc(Br)c2)on1
- IC50 [15]: 83.3 µM (inactive)
- IC50 [16]: 12.9 µM (active)
- IC50 [17]: 54.9 µM (active)
- IC50 [18]: 2.93 µM (active)
- IC50 [19]: > 100 µM (inactive)
- IC50 [20]: > 69.5 µM (inactive)
- IC50 [21]: > 69.5 µM (inactive)
- IC50 [22]: 1.66 µM (active)

Structure (SMILES): CCN1CCN(C2=C(NC(=O)c3ccccc3)C(=O)c3ccccc3C2=O)CC1
- AC50 [23]: 11.2 µM (active)
- AC50 [24]: 1.72 µM (active)
- AC50 [25]: 5.64 µM (active)
- AC50 [26]: 6.95 µM (active)
- AC50 [27]: 27.3 µM (active)
- AC50 [28]: 15.8 µM (active)
- AC50 [29]: 0.729 µM (active)
- AC50 [30]: 26.7 µM (active)
- AC50 [31]: 0.523 µM (active)
- AC50 [32]: 9.73 µM (active)
- AC50 [33]: 10.1 µM (active)
- AC50 [34]: 9.53 µM (active)
- AC50 [35]: 5.64 µM (active)

Structure (SMILES): O=c1ncn(-c2cccc(Cl)c2)c2cc(Cl)ccc12
- AC50 [36]: > 160 µM (inactive)

Structure (SMILES): O=c1c2ccccc2n(CC(O)CN2CCCCC2)c2ccccc12 (configuration not stated)
- AC50 [37]: 3.43 µM (active)
